{
  "source": "ChEMBL document CHEMBL4000228",
  "about": "“Synthesis of bioactive and fluorescent pyridine-triazole-coumarin peptidomimetics through sequential click-multicomponent reactions” (Bioorg Med Chem Lett, 2017)",
  "key": {"MCF7 [1]": {"tested_on": "MCF7", "test": "Induction of morphological changes in human MCF7 cells at 40 uM after 48 hrs by DAPI staining based fluorescence microscopic method", "assay_type": "functional, cell-based"}, "MCF7 [2]": {"tested_on": "MCF7", "test": "Induction of morphological changes in human MCF7 cells at 40 uM after 48 hrs by DAPI staining based inverted light microscopic method", "assay_type": "functional, cell-based"}},
  "note": "Active and inactive are the calls of the source. The calls are words filed in the database; no cut-off is given here.",
  "data": [
    {"smiles": "COc1ccc(C(CC(=O)c2cc3ccccc3oc2=O)NC(=O)CCn2cc(COc3ccc(-c4c(C#N)c(N)nc(Sc5ccccc5)c4C#N)cc3OC)nn2)cc1", "note": "(configuration not stated)", "values": [
      {"measurement": "Activity", "setting": "MCF7 [1]", "result": "Active"},
      {"measurement": "Activity", "setting": "MCF7 [2]", "result": "Active"}
    ]}
  ]
}
